In patent US20080317857A1, “V-Atpase Inhibitors of Use in the Treatment of Septic Shock” (Brane Discovery S.r.l., priority 2005, published 2008):

Experiments:
[1] = test system: Monocytes; experiment: Chemoattractant-induced rapid adhesion of monocytes to fibrinogen; type: cell-based; conditions: Homo sapiens, Monocyte, read-out: Inhibition of Adhesion (%) Monocytes (fMLP)
Description: (§1) Adhesion was performed on purified integrin ligands and was evaluated as reported in Constantin G. et al., Immunity, 16, 759-769, 2000. Briefly, primary naïve lymphocytes, polymorphonuclear neutrophils (PMNs) or monocytes were isolated form healthy donors. In other experiments, murine autoreactive T cells were obtained from SJL mice immunized with PLP139-151 as described (Piccio L. et al., J. Immunol. 168, 1940-1949, 2002). Cells were resuspended at 4×10^6/ml in PBS, CaCl2, MgCl2 1 mM, 10% FCS, pH 7.2. Adhesion assays were performed on eighteen well glass slides coated overnight at 4° C. with ligands for CR3 (fibrinogen) or LFA-1 (ICAM-1). 20 μl of cell suspension were added to the wells and stimulated at 37° C. with 5 μl of agonists prior to washing, fixation and computer-assisted enumeration of bound cells.
(§2) Integrin activation was measured as induction of rapid adhesion triggered by the classical chemoattractant N-formyl-L-methionyl-L-leucyl-phenylalanine (fMLP) (100 nM) or by the CC chemokine MIP3β (CCL19, 1 μM). PMNs and monocytes were triggered to adhere to fibrinogen (CR3 ligand); naive human lymphocytes or murine encephalitogenic T cells were triggered to adhere to ICAM-1 (LFA-1 ligand). Triggered adhesion was evaluated after 2 min of stimulation under static conditions. The cells were pretreated at 37° C. for 30-60 min with the indicated concentrations of the test compound. Results are expressed as percentage of inhibition over control (=100%) and are the mean of three experiments in the case of human leukocytes. Results are expressed as mean counts and are the mean counts±S.D of three experiments and are the mean of three experiments in the case of murine encephalitogenic lymphocytes.

[2] = test system: Monocytes; experiment: Chemotaxis assay, monocytes (transwell); type: cell-based; conditions: Homo sapiens, Monocyte
Description: (§3) PMNs and monocytes migration was assessed using 1 or 3-μm pore size transwells (Bio-Coat Becton-Dickinson), while lymphocytes by using 5-μm pore size transwells.
(§4) Cells were in RPMI1640, containing 10% heat-inactivated Fetal Calf Serum (FCS) and 20 mM HEPES, pH 7.3, at 2×10^6/ml. 100 μl of cell suspension were added to the top well, and 600 μl of medium, containing chemoaftractants and test compound, were added to the bottom well. Migration was evaluated after 2 h for PMNs and monocytes and after 4 h for lymphocytes. fMLP 10 nM (PMNs and monocytes) and MIP-3β 100 nM (lymphocytes) were utilized as chemoattractants. After fixation with 1.5% glutaraldehyde, migrated cells were counted by fluorescence-activated cell sorting using polystyrene beads (Polyscience) as an internal standard (Campbell J. J. et al. J. Cell. Biol. 134, 255-266, 1996; Laudanna C. et al. J. Biol. Chem. 273, 46, 30306-30315, 1998).
(§5) Results are expressed as percentage of inhibition over control (=100%), and are the mean of three experiments.

[3] = test system: Lymphocytes; experiment: Chemotaxis assay, lymphocytes (transwell); type: cell-based; conditions: Homo sapiens, Lymphocyte
Description: as §3, §4, §5

[4] = test system: PMNs; experiment: Chemoattractant-induced rapid adhesion of PMNs to fibrinogen (CR3 ligand); type: cell-based; conditions: Homo sapiens
Description: as §1, §2
(§6) Integrin activation was measured as induction of rapid adhesion triggered by the “classical” chemoattractant fMLP (100 nM) or by the CC chemokine MIP3β(CCL19, 1 μM). PMNs were triggered to adhere to fibrinogen (CR3 ligand); lymphocytes were triggered to adhere to ICAM-1 (LFA-1 ligand).

[5] = test system: endotoxic shock induced by LPS in C57BI/6 male mice; experiment: Septic shock animal model (LPS-induced endotoxic shock), survival; type: in vivo
From the text: The model is represented by endotoxic shock, the most common type of septic shock in humans.
The septic shock has been induced in 8-10 week-old C57BI/6 male mice (Harlan-Nossan laboratories) by high concentrations of LPS (lipopolysaccharide), that is considered a reliable experimental model for human endotoxic shock (Garrido et al., Acta Chir. Bras., 19, 2004).
LPS from Escherichia coli 0127:B7 (Sigma) was solubilized in PBS containing 2% fetal calf serum (FCS) as a source of “LPS binding protein”, a molecule that increases the endotoxin action. Mice received 37.5 mg/kg LPS/endotoxin intraperitoneally (i.p.). Animals (ten/group) were monitored at least four times daily and survival of animals was determined in control and treated mice (Lowell C. A. et al., PNAS 95, 7580, 1998).
In the preventive study (FIG. 3), control mice received only vehicle, while treated mice received 70 mg/kg i.p. of Compound of Example 1 two hours before the administration of LPS.
In the therapeutic study (FIG. 4), control mice received only vehicle, while treated mice received both 70 mg/kg i.p. of Compound of Example 1 (3 hours after LPS administration) and 10 mg/kg i.v. (intravenously) (12 hours after LPS administration).

[6] = test system: Lymphocytes; experiment: Chemokine-induced rapid adhesion of lymphocytes to ICAM-1 (LFA-1 ligand); type: cell-based; conditions: Homo sapiens, Lymphocyte
Description: as §1, §2, §6

Q: With `COC(=O)c1[nH]c2cc(OC)c(OC)cc2c1-c1ccc(OC)cc1` [Example 1] as the molecule, how does the inhibition at 2.5 µM ([1]; [cpd] 2.5 μM) read?
A: < 5%

Q: And the inhibition at 5 µM ([1]; [cpd] 5 μM)?
A: < 5%

Q: And the inhibition at 10 µM ([1]; [cpd] 10 μM)?
A: < 5%

Q: And the inhibition at 25 µM ([1]; [cpd] 25 μM)?
A: < 5%

Q: And the inhibition at 50 µM ([1]; [cpd] 50 μM)?
A: < 5%

Q: And the inhibition at 100 µM ([1]; [cpd] 100 μM)?
A: < 5%

Q: What about the inhibition at 2.5 µM ([2]; [cpd] 2.5 μM, read-out: Inhibition of Chemotaxis (%) Monocytes (fMLP)) of the same molecule?
A: 10.5%

Q: What about the inhibition at 5 µM ([2]; [cpd] 5 μM, read-out: Inhibition of Chemotaxis (%) Monocytes (fMLP) (converted)) of the same molecule?
A: 15.5%

Q: And the inhibition at 10 µM ([2]; [cpd] 10 μM, read-out: Inhibition of Chemotaxis (%) Monocytes (fMLP) (converted))?
A: 18.3%

Q: What about the inhibition at 25 µM ([2]; [cpd] 25 μM, read-out: Inhibition of Chemotaxis (%) Monocytes (fMLP) (converted)) of the same molecule?
A: 47.4%

Q: And the inhibition at 50 µM ([2]; [cpd] 50 μM, read-out: Inhibition of Chemotaxis (%) Monocytes (fMLP) (converted))?
A: 46.3%

Q: What about the inhibition at 100 µM ([2]; [cpd] 100 μM, read-out: Inhibition of Chemotaxis (%) Monocytes (fMLP) (converted)) of the same molecule?
A: 75.5%

Q: What about the inhibition at 2.5 µM ([3]; [cpd] 2.5 μM, read-out: Inhibition of Chemotaxis (%) Lymphocytes (MIP3-β)) of the same molecule?
A: 11.6%

Q: What about the inhibition at 5 µM ([3]; [cpd] 5 μM, read-out: Inhibition of Chemotaxis (%) Lymphocytes (MIP3-β) (converted)) of the same molecule?
A: 27.2%

Q: What about the inhibition at 10 µM ([3]; [cpd] 10 μM, read-out: Inhibition of Chemotaxis (%) Lymphocytes (MIP3-β) (converted)) of the same molecule?
A: 43.2%

Q: What about the inhibition at 25 µM ([3]; [cpd] 25 μM, read-out: Inhibition of Chemotaxis (%) Lymphocytes (MIP3-β) (converted)) of the same molecule?
A: 53.3%

Q: What about the inhibition at 50 µM ([3]; [cpd] 50 μM, read-out: Inhibition of Chemotaxis (%) Lymphocytes (MIP3-β) (converted)) of the same molecule?
A: 63.5%

Q: And the inhibition at 100 µM ([3]; [cpd] 100 μM, read-out: Inhibition of Chemotaxis (%) Lymphocytes (MIP3-β) (converted))?
A: 86.9%

Q: And the inhibition at 2.5 µM ([4]; [cpd] 2.5 μM, read-out: Inhibition of Adhesion (%) PMNs (fMLP))?
A: 9.4%

Q: What about the inhibition at 5 µM ([4]; [cpd] 5 μM, read-out: Inhibition of Adhesion (%) PMNs (fMLP) (converted)) of the same molecule?
A: 56.1%

Q: What about the inhibition at 10 µM ([4]; [cpd] 10 μM, read-out: Inhibition of Adhesion (%) PMNs (fMLP) (converted)) of the same molecule?
A: 66.7%

Q: And the inhibition at 25 µM ([4]; [cpd] 25 μM, read-out: Inhibition of Adhesion (%) PMNs (fMLP) (converted))?
A: 72.9%

Q: What about the inhibition at 50 µM ([4]; [cpd] 50 μM, read-out: Inhibition of Adhesion (%) PMNs (fMLP) (converted)) of the same molecule?
A: 79%

Q: What about the inhibition at 100 µM ([4]; [cpd] 100 μM, read-out: Inhibition of Adhesion (%) PMNs (fMLP) (converted)) of the same molecule?
A: 94.2%

Q: What about the “survival, therapeutic study” value ([5]; 70 mg/kg i.p. 3 hours and 10 mg/kg i.v. 12 hours after LPS, at 52 hours, control survival 0%) of the same molecule?
A: 40%

Q: What about the “mortality, preventive study” value ([5]; 70 mg/kg i.p. two hours before LPS, at 90 hours, control mortality 100%) of the same molecule?
A: 20%

Q: And the “survival, preventive study” value ([5]; 70 mg/kg i.p. two hours before LPS, at 90 hours, control survival 0%)?
A: 80%

Q: And the inhibition at 2.5 µM ([6]; [cpd] 2.5 μM, read-out: Inhibition of Adhesion (%) Lymphocytes (MIP3-β))?
A: 32.4%

Q: And the inhibition at 5 µM ([6]; [cpd] 5 μM, read-out: Inhibition of Adhesion (%) Lymphocytes (MIP3-β) (converted))?
A: 41.2%

Q: And the inhibition at 10 µM ([6]; [cpd] 10 μM, read-out: Inhibition of Adhesion (%) Lymphocytes (MIP3-β) (converted))?
A: 42.6%

Q: What about the inhibition at 25 µM ([6]; [cpd] 25 μM, read-out: Inhibition of Adhesion (%) Lymphocytes (MIP3-β) (converted)) of the same molecule?
A: 60.8%

Q: What about the inhibition at 50 µM ([6]; [cpd] 50 μM, read-out: Inhibition of Adhesion (%) Lymphocytes (MIP3-β) (converted)) of the same molecule?
A: 61.8%

Q: And the inhibition at 100 µM ([6]; [cpd] 100 μM, read-out: Inhibition of Adhesion (%) Lymphocytes (MIP3-β) (converted))?
A: 98.6%
